Consider 47 compounds from patent US9301526B2, “Compounds with nematicidal activity” (BAYER INTELLECTUAL PROPERTY GMBH, priority 2011, dated 2016).

SMILES strings stand for the structures.

In one series the test system is Haemonchus contortus larvae. As to the kind of experiment: Haemonchus contortus test (HAEMCO), larval mortality. Type of series: in vivo. Particulars: application rate 20 ppm; after 5 days; 100% = all larvae killed. The procedure: Haemonchus contortus—Test (HAEMCO)
(§1) Solvent: dimethyl sulfoxide
(§2) To produce a suitable preparation of active compound, 10 mg of active compound are dissolved in 0.5 ml solvent, and the concentrate is diluted with “Ringer's solution” to the desired concentration.
Approximately 40 Haemonchus contortus larvae are transferred into a test tube containing compound solution. After 5 days percentage of larval mortality are recorded. 100% efficacy means all larvae are killed, 0% efficacy means no larvae are killed.
As to `O=C(NCCc1cnc(C(F)(F)F)cc1Cl)c1ccccc1Br` [Ib-52], the “activity (percentage of larval mortality)” value is on record as 80%.

The same series, now with this note: application rate 100 ppm; after 5 days; 100% = all larvae killed.
In the case of `O=C(NCCc1cnc(C(F)(F)F)cc1Cl)c1ccccc1C(F)(F)F` [Ib-47], the “activity (percentage of larval mortality)” value is 100%.
For `O=C(NCCc1c(F)c(F)nc(F)c1F)c1ccccc1C(F)(F)F` [Ic-1], the “activity (percentage of larval mortality)” value was determined as 100%.
On to `O=C(NCCc1cnc(C(F)(F)F)cc1Cl)c1ccccc1Cl` [Ib-49], for which the “activity (percentage of larval mortality)” value amounted to 100%.
On to `O=C(NCCc1cnc(C(F)(F)F)cc1Cl)c1ccccc1F` [Ib-48], for which the “activity (percentage of larval mortality)” value was determined as 90%.
On to `O=C(NCCc1cc(F)ncc1F)c1ccccc1C(F)(F)F` [Ic-7], for which the “activity (percentage of larval mortality)” value was 100%.
With `COC(=O)C(CNC(=O)c1ccccc1C(F)(F)F)c1ncc(C(F)(F)F)cc1Cl` (centres unmarked) [Ia-5], the “activity (percentage of larval mortality)” value amounted to 80%.
On the same count and under the same terms, to `COC(=O)C(CNC(=O)c1ccccc1C(F)(F)F)(C(=O)OC)c1ncc(C(F)(F)F)cc1Cl` [Ia-1] belongs 90%; to `CCOC(=O)C(CNC(=O)c1ccccc1C(F)(F)F)(C(=O)OC)c1ncc(C(F)(F)F)cc1Cl` (centres unmarked) [Ia-6], 80%.
The same measure, in the same setting: to `O=C(NCC1(c2ccc(Cl)cn2)CC1)c1ccccc1C(F)(F)F` [Ia-48] belongs 80%.
On the same count and under the same terms, the same measure for `O=C(NCCc1cnc(C(F)(F)F)cc1Cl)c1c(F)cccc1F` [Ib-51]: 90%; for `O=C(NCCc1cnc(C(F)(F)F)cc1Cl)c1ccccc1C(F)F` [Ib-50]: 100%.

The test system of the next series is Cooperia curticei larvae. As to the kind of experiment: Cooperia curticei test (COOPCU), larval mortality. Particulars: application rate 100 ppm; after 5 days; 100% = all larvae killed. Type of series: in vivo. The procedure: Cooperia Curticei-Test (COOPCU)
as §1, §2
Approximately 40 Cooperia curticei larvae are transferred into a test tube containing compound solution. After 5 days percentage of larval mortality are recorded. 100% efficacy means all larvae are killed; 0% efficacy means no larvae are killed.
Regarding `COc1cc(CCNC(=O)c2ccc(C(F)(F)F)cc2)ccn1` [Ic-60], the “activity (percentage of larval mortality)” value is 90%.
As for `CCc1ccc(C(=O)NCCc2ccnc(OC)c2)cc1` [Ic-58], the “activity (percentage of larval mortality)” value came out at 80%.
Take `O=C(NCCc1c(Cl)cncc1Cl)c1ccc(F)c(F)c1` [Ic-26]: the “activity (percentage of larval mortality)” value is reported as 80%.
The same measure, in the same setting: the same measure for `O=C(NCCc1cnc(C(F)(F)F)cc1Cl)c1ccccc1F` [Ib-48]: 90%; for `COc1cc(CCNC(=O)c2ccccc2OC)ccn1` [Ic-59]: 90%; for `COc1cc(CCNC(=O)c2cccc(Cl)c2)ccn1` [Ic-75]: 90%.

A further series has as its system Meloidogyne incognita. As to the kind of experiment: Meloidogyne incognita test (gall formation on salad seedlings in sand). Type of series: in vivo. Particulars: application rate 20 ppm; after 14 days; 100% = no galls, 0% = galls equal to untreated control. The procedure:
Meloidogyne Incognita—Test
Solvent: 125.0 parts by weight of acetone
To produce a suitable preparation of active compound, 1 part by weight of active compound is mixed with the stated amount of solvent, and the concentrate is diluted with water to the desired concentration. Vessels are filled with sand, a solution of the active ingredient, a suspension containing eggs and larvae of Meloidogyne incognita and salad seeds. The salad seeds germinate and the seedlings grow. Galls develop in the roots.
After 14 days the nematicidal activity is determined on the basis of the percentage of gall formation. 100% means that no galls were found; 0% means that the number of galls found on the roots of the treated plants was equal to that in untreated control plants.
For the compound `O=C(NCCc1cnc(C(F)(F)F)cc1Cl)c1ccccc1C(F)(F)F` [Ib-47], the “nematicidal activity on the basis of the percentage of gall formation” value was 90%.
Same read-out and setting: to `Cc1c(F)cccc1C(=O)NCC(C)c1ncc(C(F)(F)F)cc1Cl` (centres unmarked) [Ia-70] belongs 100%; to `CC(Cc1ncc(C(F)(F)F)cc1Cl)NC(=O)c1ccccc1C(F)(F)F` (single isomer, unassigned) [Ia-122], 100%.
For `CC(CNC(=O)c1ccccc1C(F)(F)F)c1ccc(C(F)(F)F)cn1` (centres unmarked) [Ia-46], the “nematicidal activity on the basis of the percentage of gall formation” value was determined as 100%.
On the same count and under the same terms, to `O=C(NCCc1c(F)c(F)nc(F)c1F)c1ccccc1C(F)(F)F` [Ic-1] belongs 100%.
For `O=C(NCC(F)(F)c1ncc(C(F)(F)F)cc1Cl)c1ccccc1C(F)(F)F` [Ia-148], the “nematicidal activity on the basis of the percentage of gall formation” value turned out to be 100%.
Turning to `CC(Cc1ncc(C(F)(F)F)cc1Cl)NC(=O)c1ccccc1I` (centres unmarked) [Ia-140], the “nematicidal activity on the basis of the percentage of gall formation” value is recorded as 100%.
On the same count and under the same terms, the same measure for `Cc1cc(CCNC(=O)c2ccccc2C(F)(F)F)c(Cl)cn1` [Ic-5]: 90%; for `CC(Cc1ncc(C(F)(F)F)cc1Cl)NC(=O)c1ccccc1C(F)F` (centres unmarked) [Ia-154]: 100%.
For the compound `CC(CNC(=O)c1ccccc1I)c1ccc(C(F)(F)F)cn1` (centres unmarked) [Ia-47], the “nematicidal activity on the basis of the percentage of gall formation” value came out at 100%.
Consider `CC(CNC(=O)c1ccccc1I)c1ncc(C(F)(F)F)cc1Cl` (centres unmarked) [Ia-177], for which the “nematicidal activity on the basis of the percentage of gall formation” value is reported as 100%.
On to `CC(Cc1ncc(C(F)(F)F)cc1Cl)NC(=O)c1ccccc1F` (centres unmarked) [Ia-172], for which the “nematicidal activity on the basis of the percentage of gall formation” value turned out to be 90%.
`O=C(NCCc1c(F)c(F)nc(F)c1F)c1ccccc1I` [Ic-2]: the “nematicidal activity on the basis of the percentage of gall formation” value is on record as 100%.
As for `CC(Cc1ncc(C(F)(F)F)cc1Cl)NC(=O)c1c(F)cccc1C(F)(F)F` (centres unmarked) [Ia-174], the “nematicidal activity on the basis of the percentage of gall formation” value is 90%.
As to `CN(C)C(CNC(=O)c1ccccc1C(F)(F)F)c1ncc(C(F)(F)F)cc1Cl` (centres unmarked) [Ia-212], the “nematicidal activity on the basis of the percentage of gall formation” value amounted to 90%.
On the same count and under the same terms, to `CCC(CNC(=O)c1ccccc1C(F)(F)F)c1ccc(Cl)cn1` (centres unmarked) [Ia-131] belongs 100%; to `CC(CNC(=O)c1ccccc1I)c1ccc(C(F)(F)F)c(Cl)n1` (centres unmarked) [Ia-50], 100%.
Same read-out and setting: to `O=C(NCCc1cc(F)ncc1F)c1ccccc1C(F)(F)F` [Ic-7] belongs 100%; to `CC(Cc1ncc(C(F)(F)F)cc1Cl)NC(=O)c1ccccc1C(F)(F)F` (centres unmarked) [Ia-43], 100%; to `CC(Cc1ncc(C(F)(F)F)cc1Cl)NC(=O)c1ccccc1Cl` (centres unmarked) [Ia-141], 100%.
Consider `CN(C)C(CNC(=O)c1ccccc1Cl)c1ncc(C(F)(F)F)cc1Cl` (centres unmarked) [Ia-211], for which the “nematicidal activity on the basis of the percentage of gall formation” value is on record as 90%.
Consider `CC(Cc1ncc(Cl)cc1Cl)NC(=O)c1ccccc1C(F)(F)F` (centres unmarked) [Ia-3], for which the “nematicidal activity on the basis of the percentage of gall formation” value came to 100%.
As for `O=C(NCCc1cnc(C(F)(F)F)cc1Cl)c1ccccc1[N+](=O)[O-]` [Ib-58], the “nematicidal activity on the basis of the percentage of gall formation” value is given as 90%.
`CC(CNC(=O)c1ccccc1C(F)(F)F)c1ncc(Cl)cc1Cl` (centres unmarked) [Ia-113]: the “nematicidal activity on the basis of the percentage of gall formation” value was determined as 100%.
Same read-out and setting: the same measure for `CC(C)(CNC(=O)c1ccccc1C(F)(F)F)c1ncc(C(F)(F)F)cc1Cl` [Ia-93, N-{2-[3-chloro-5-(trifluoromethyl)pyridin-2-yl]-2-methylpropyl}-2-(trifluoromethyl)benzamide]: 100%; for `CCC(Cc1ncc(C(F)(F)F)cc1Cl)NC(=O)c1ccccc1C(F)(F)F` (centres unmarked) [Ia-110]: 100%.
Same read-out and setting: to `O=C(NCC(F)(F)c1ncc(Cl)cc1Cl)c1ccccc1I` [Ia-142] belongs 100%; to `CC(NC(=O)c1ccccc1C(F)(F)F)C(CC1CC1)c1ncc(C(F)(F)F)cc1Cl` (mixture of isomers) [Ia-143], 100%; to `CC(Cc1ncc(C(F)(F)F)cc1Cl)NC(=O)c1ccccc1Br` (centres unmarked) [Ia-153], 100%.
On the same count and under the same terms, to `CC(Cc1ncc(C(F)(F)F)cc1Cl)NC(=O)c1ccccc1[N+](=O)[O-]` (centres unmarked) [Ia-196] belongs 90%.
For the compound `CC(CNC(=O)c1ccccc1I)c1ncc(Cl)cc1Cl` (centres unmarked) [Ia-114], the “nematicidal activity on the basis of the percentage of gall formation” value came out at 100%.
With `CC(CNC(=O)c1ccccc1C(F)(F)F)c1ncc(C(F)(F)F)cc1Cl` (centres unmarked) [Ia-92], the “nematicidal activity on the basis of the percentage of gall formation” value is recorded as 100%.
Take `CC(Cc1ncc(C(F)(F)F)cc1Cl)NC(=O)c1c(F)cccc1F` (centres unmarked) [Ia-170]: the “nematicidal activity on the basis of the percentage of gall formation” value is 90%.
Regarding `O=C(NCCc1cnc(C(F)(F)F)cc1Cl)c1c(F)cccc1F` [Ib-51], the “nematicidal activity on the basis of the percentage of gall formation” value is 70%.
Turning to `O=C(NCCc1cnc(C(F)(F)F)cc1Cl)c1ccccc1C(F)F` [Ib-50], the “nematicidal activity on the basis of the percentage of gall formation” value was 70%.
